Reference: patent US5618726A, “Biodegradable azo dyes” (priority 1994, dated 1997)

Assays:
P. chrysosporium = experiment: Mineralization of 14C-labeled dyes by shaken cultures; format: cell-based, Phanerochaete chrysosporium
Procedure: (§1) Agitated cultures containing 100,000 to 150,000 dpm of azo dye at a concentration of 200 mg/liter for P. chrysosporium and 50 mg/liter for S. chromofuscus were incubated at 37° C. for 20 days with shaking at 200 rpm. For each mineralization experiment six replicates-per-culture were run for P. chrysosporium and three replicates-per-culture for S. chromofuscus. Each culture flask contained a CO2 trap consisting of a small glass cup connected to the bottom of the rubber stopper. The cup contained 1 ml of 1N NaOH. Samples were taken every 2 days, and after each sampling cultures were flushed with 100% oxygen for 30 s. At the sampling time, the stopper was removed and the NaOH containing trapped CO2 was transferred to a 20-ml scintillation vial, and the cup was then rinsed twice with 1 ml of water. Two ml of rinse water were also transferred to the vial. Finally, 10 ml of Ecolite scintillation cocktail (ICN Biochemicals Inc., Irvine, Calif.) were added to each vial. Vials, after mixing, were stored in the dark for 24 h. The cpm of trapped radioactivity was then determined in a Packard Tri-Carb liquid scintillation analyzer, Model 1500, using the ^14 C quench standards and SIS numbers.
Either a charcoal-containing polyurethane sponge (Bio-Rad Laboratories, Richmond, Calif.) or 2-methoxyethanol was used to trap volatile organic compounds released during mineralization experiments. The sponge (1 cm^3) replaced the 1N NaOH solution in the small glass cap attached to the rubber stopper; other conditions were as before for the ^14 CO2 experiments. For scintillation counting, the charcoal sponges were dissolved in 1 ml of hyamine hydroxide contained in scintillation vials (1M solution in methanol; NEN Research Products, Boston, Mass.) held at 55° C. for 2 h. Ten ml of Ecolite scintillation cocktail were then added and the cpm was measured.
In the second procedure, cultures with CO2 traps were flushed with oxygen for 10 min, and the organic volatiles present were trapped in 10 ml of 2-methoxyethanol mixed with 10 ml Ecolite.
(§2) The removal of radioactivity from the media was determined by measuring the amount of ^14 C label in 0.1 ml of the medium at time 0 and 21 days for each culture. Uninoculated cultures were used as evaporation controls. […] At the end of each mineralization experiment, culture broths were acidified with 5 ml of 1M H3 PO4, fresh 1N NaOH was added to the trap, and the cultures were shaken overnight. No additional releases of ^14 CO2 were observed. The radioactivity assimilated by the cells was measured by solubilizing biomass harvested from each 21-day-old culture in an equal volume of hyamine hydroxide solution. Before solubilization, cells were washed three times with 50 ml of distilled water to remove adsorbed dyes. Ecolite 10 ml was added to the mixture, which was vortexed vigorously. To increase counting efficiency, the solution of biomass-hyamine-scintillation cocktail was further diluted 10 to 20 times with fresh Ecolite before counting.

[1] = system: Streptomyces chromofuscus; experiment: as above; format: cell-based
Procedure: as §1, §2

[2] = system: S. chromofuscus A11 extracellular peroxidase; experiment: Oxidation of azo dyes by S. chromofuscus A11 crude enzyme preparation; format: biochemical, Streptomyces chromofuscus A11; settings: pH 8, 37° C., H2O2
Procedure: Environ. Microbiol., 1988, 54:3057-3063. […] Microbiol. Biotechnol., 34:661-667. Incubation took place at 37° C. with shaking at 250 rpm. The culture supernatant was collected after 48 h incubation, and vacuum-filtered through Whatman no. 1 filter paper. The filtrate was concentrated approximately 40- to 50-fold by ultrafiltration through an Amicon ultrafiltration stirred cell (series no. 8000, Amicon Corp.) with a disc PM-10 filter (diameter, 76 mm). Protein in the concentrated filtrate was then precipitated from solution with 80% ammonium sulfate. The precipitate was collected by centrifugation (15 min, 10,000 rpm). The pellet was resuspended in 10 ml of 20 mM HEPES buffer (pH 8) and dialyzed overnight against the same buffer at 4° C. These preparations were then stored in 1-ml aliquots at -20° C. until used. Before using, the preparation was filtered through a NAP-25 Sephadex G-25 disposable column (Pharmacia) in order to separate a yellowish protein fraction from a pink low-molecular-weight fraction. The yellowish fraction was used as the source of enzyme. […] The reaction was started with the addition of 100 μl of 50 mM H2 O2 and was followed for 1 min at 37° C. Controls were run with no addition of H2 O2 or with the addition of the hemeperoxidase inhibitor KCN (final concentration 25 μM).

Mn(II)-peroxidase = experiment: Oxidation of dyes by P. chrysosporium Mn(II)-peroxidase; format: biochemical, Phanerochaete chrysosporium; settings: crude enzyme, conditions specific for Mn(II)-peroxidase
Procedure: (§3) The peroxidase assay was carried out using a composition having a final volume of 1.0 ml. The reaction mixture contained 250 μl of 100 mM HEPES buffer (pH 8), 500 μl of 10 mM 2,4-dichlorophenol, 100 μl of 1 mM aminoantipyrine, 50 μl enzyme preparation and 100 μl 50 mM H2 O2. The reaction was initiated by the addition of hydrogen peroxide at 37° C. One unit of peroxidase activity was expressed as the amount of enzyme required for an increase of one absorbance-unit-per-minute at 510 nm. Assays of manganese peroxidase and of ligninase from P. chrysosporium were carried out as previously described by Paszczynski et al in "Manganese peroxidase of Phanerochaete chrysosporium: Purification," Methods Enzymol. 161:264-270, incorporated herein by reference. […] Biophys., 1986, 44:750-765. Preparation and assay of ligninase and manganese peroxidase from these P. chrysosporium cultures were carried out as previously reported by Paszczynski, et al., Methods Enzymol., 1988, 161:264-270. […] Purification," Methods Enzymol. 161:264-270. […] Cycle time was 10 seconds, with the last measure after three minutes of incubation.

ligninase = experiment: Oxidation of dyes by P. chrysosporium ligninase (crude preparation); format: biochemical, Phanerochaete chrysosporium; settings: crude enzyme, conditions specific for ligninase
Procedure: as §3, with “30 seconds” for “10 seconds,”, “15 minutes. […] The reaction conditions were the same as for acid yellow 9. No decolorization” for “three minutes”, “the synthesized dyes by ligninase was detected.” for “incubation.”

[3] = biological target: T1, horseradish peroxidase type II (Armoracia rusticana, UniProt P00433); experiment: Oxidation of azo dyes by horseradish peroxidase preparation; format: biochemical; settings: pH 8, 37° C., H2O2
T1 sequence (P00433 31-338): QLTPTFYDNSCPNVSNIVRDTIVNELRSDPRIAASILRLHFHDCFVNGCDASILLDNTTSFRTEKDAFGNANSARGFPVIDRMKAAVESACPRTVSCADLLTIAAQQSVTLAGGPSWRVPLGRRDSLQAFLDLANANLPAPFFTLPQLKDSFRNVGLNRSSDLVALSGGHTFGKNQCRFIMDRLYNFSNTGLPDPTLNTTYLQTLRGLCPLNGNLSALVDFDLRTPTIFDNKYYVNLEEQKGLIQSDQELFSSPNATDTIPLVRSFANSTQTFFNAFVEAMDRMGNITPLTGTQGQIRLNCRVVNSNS
Procedure: The reaction was started with the addition of 100 μl of 50 mM H2 O2 and was followed for 1 min at 37° C. Controls were run with no addition of H2 O2 or with the addition of the hemeperoxidase inhibitor KCN (final concentration 25 μM).

[4] = system: Phanerochaete chrysosporium; experiment: Substrate removal / decolorization by P. chrysosporium culture; format: cell-based; settings: for % Decolorization, P. chrysosporium: 14 days
Procedure: Environ. Microbiol., 1981, 42:290-296), with the addition of 75 mg adenine (6-aminopurine) and 27 mg L-phenylalanine-per-liter. This addition accelerated the growth of the fungus without inhibiting ligninase activity. […] […] Cultures were incubated at 37° C. for 7 to 15 days with shaking (250 rpm). Solid agar media were also employed.

S. chromofuscus A11 = system: S. chromofuscus A11
Procedure: (§4) Microbiol., 1984, 130:2905-2913.
(§5) Replicate sterile controls also were run in each experiment.
The Streptomyces were grown on the same media and under the same conditions as previously described. […] Thus, the spectrophotometric assays for substrates 1-12 were carried out at their specific isobastic points. Degradation was calculated as percent of substrates removed from culture broth, considering the evaporation factor (around 10%).

S. rochei A10 = format: cell-based; settings: streptomyces rochei a10 culture, 336 h
From the text: as §4, §5

## O=S(=O)(O)c1ccc(N=Nc2ccc(O)c3ccccc23)cc1 [Azo dye 32, 4-(4-hydroxy-naphthylazo)-benzenesulfonic acid]
P. chrysosporium; 21 days' growth, 200 mg/liter
  Percentage of radioactivity recovered in CO2, P. chrysosporium: 19.7%
  Percentage of radioactivity recovered in biomass (cells), P. chrysosporium: 4.0%
  Percentage of radioactivity removed from the medium, P. chrysosporium: 29.6%
[1]; 21 days' growth, 50 mg/liter
  Percentage of radioactivity recovered in CO2, Streptomyces chromofuscus: 1.1%
  Percentage of radioactivity recovered in biomass (cells), Streptomyces chromofuscus: 7.0%
  Percentage of radioactivity removed from the medium, Streptomyces chromofuscus: 22.0%

## COc1cc(C)cc(N=Nc2ccc(S(=O)(=O)O)cc2)c1O [compound 11]
[2]
  Oxidation rate of azo dyes, S. chromofuscus peroxidase: 0.33 μmoles per minute per ml
Mn(II)-peroxidase
  Oxidation rate of azo dyes, P. chrysosporium Mn-peroxidase: 1.06 μmoles per minute per ml
ligninase
  Oxidation rate of azo dyes, P. chrysosporium Ligninase: 1.28 μmoles per minute per ml
[3]
  Oxidation rate of azo dyes, Horseradish peroxidase: 0.15 μmoles per minute per ml
[4]; beginning concentration 100 ppm
  Concentration of substrate after ten days cultivation with P. chrysosporium: 6.795 ppm
[4]; beginning concentration 150 ppm
  Concentration of substrate after ten days cultivation with P. chrysosporium: 14.416 ppm
[4]; beginning concentration 200 ppm
  Concentration of substrate after ten days cultivation with P. chrysosporium: 30.075 ppm
[4]; beginning concentration 300 ppm
  Concentration of substrate after ten days cultivation with P. chrysosporium: 21.765 ppm
[4]; initial concn 150 ppm
  % Decolorization, P. chrysosporium: 70%
[4]; initial concn 300 ppm
  % Decolorization, P. chrysosporium: 34%
S. chromofuscus A11; streptomyces chromofuscus a11 culture, 336 h
  Degradation (%) after Streptomyces cultivation, strain A11: 9%
S. rochei A10
  Degradation (%) after Streptomyces cultivation, strain A10: 4%

## O=S(=O)(O)c1ccc(N=Nc2ccc(O)c3ccccc23)cc1 [compound 32]
[2]
  Oxidation rate of azo dyes, S. chromofuscus peroxidase: 2.62 μmoles per minute per ml
Mn(II)-peroxidase
  Oxidation rate of azo dyes, P. chrysosporium Mn-peroxidase: 4.62 μmoles per minute per ml
ligninase
  Oxidation rate of azo dyes, P. chrysosporium Ligninase: 0.23 μmoles per minute per ml
[3]
  Oxidation rate of azo dyes, Horseradish peroxidase: 3.91 μmoles per minute per ml
S. chromofuscus A11; both 50 and 100 ppm
  Decolorization of growth medium by S. chromofuscus A11: significantly decolorized

## COc1cc(N=Nc2ccc(N=N[14c]3[14cH][14cH][14c](S(=O)(=O)O)[14cH][14cH]3)cc2S(=O)(=O)O)ccc1O [compound 35]
[1]; 21-day incubation
  Mineralization by the streptomycetes: mineralized

## O=S(=O)(O)[14c]1[14cH][14cH][14c](N=Nc2c(O)ccc3ccccc23)[14cH][14cH]1 [compound 36]
P. chrysosporium; P. chrysosporium
  Degradation began earlier than dye 37: 2 days
P. chrysosporium; P. chrysosporium, 21-day incubation
  Degradation relative to dye 37: 2.5 times
